Activity calls are given as the source filed them. Cut-off read from the data, not from the text of the source, for most assays here: active = IC50 of 20 µM or less and inactive = more. Bounds are passed on as bounds.

By EC50 is commonly meant the concentration giving half of the maximal effect.

Experiment [1] addresses T1, Carboxy-terminal domain RNA polymerase II polypeptide A small phosphatase 1 (Homo sapiens, UniProt Q9GZU7).
T1 sequence (Q9GZU7 whole entry): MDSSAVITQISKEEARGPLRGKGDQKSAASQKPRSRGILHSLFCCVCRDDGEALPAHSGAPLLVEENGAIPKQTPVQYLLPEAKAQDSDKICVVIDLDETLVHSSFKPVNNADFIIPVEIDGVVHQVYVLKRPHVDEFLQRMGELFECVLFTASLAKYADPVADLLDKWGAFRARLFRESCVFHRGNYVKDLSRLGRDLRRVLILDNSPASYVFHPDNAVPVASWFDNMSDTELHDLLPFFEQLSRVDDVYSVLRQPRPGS
The experiment in a line: inhibitors of CTDSP1, concentration-response testing, biochemical assay, absorbance-based, actives from ultra-high-throughput screening (AID 540297). The class given is functional.

Experiment [2] deals with T2, Low molecular weight phosphotyrosine protein phosphatase (Homo sapiens, UniProt P24666).
T2 sequence (P24666 whole entry): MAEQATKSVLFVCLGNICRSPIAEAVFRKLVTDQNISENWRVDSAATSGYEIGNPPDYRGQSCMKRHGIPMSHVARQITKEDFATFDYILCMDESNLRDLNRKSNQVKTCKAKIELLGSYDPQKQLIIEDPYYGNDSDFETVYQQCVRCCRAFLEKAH
Type of experiment: functional. Particulars: read-out: IC50_Mean.

Experiment [3] concerns the target T3, RNA-binding protein pos-1 (Caenorhabditis elegans, UniProt G5EF15).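 Note: purified POS-1 fused to maltose binding protein made in E. coli; potency of compounds blocking POS-1 binding to fluorescent RNA.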
T3 sequence (G5EF15 whole entry): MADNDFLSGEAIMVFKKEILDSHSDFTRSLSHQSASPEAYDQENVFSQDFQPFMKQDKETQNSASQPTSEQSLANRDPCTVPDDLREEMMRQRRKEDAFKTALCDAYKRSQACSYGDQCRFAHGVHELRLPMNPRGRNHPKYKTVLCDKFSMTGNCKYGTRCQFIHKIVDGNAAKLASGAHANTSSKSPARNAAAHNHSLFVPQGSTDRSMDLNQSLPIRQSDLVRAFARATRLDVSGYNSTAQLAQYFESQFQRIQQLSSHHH
The experiment is described as follows: inhibitors of POS-1/mex-3 RNA binding, dose response, biochemical, fluorescence polarization (AID 1964). (In fluorescence polarisation assays a small probe gives low polarisation when free and higher when bound to something large.)

For experiment [4], the target named is T4, Small ubiquitin-related modifier 1 (Homo sapiens, UniProt P63165). The experiment is described as follows: inhibitors of SUMO1 peptide binding, dose response, biochemical, fluorescence polarization, uHTS hits (AID 624382). The class given is functional. The conditions noted are these: read-out: IC50_Mean.
T4 sequence (P63165 whole entry): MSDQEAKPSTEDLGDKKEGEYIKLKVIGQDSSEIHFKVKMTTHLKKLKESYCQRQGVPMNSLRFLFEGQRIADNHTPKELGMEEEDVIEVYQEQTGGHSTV
Experiment [5] has as its target T4, Small ubiquitin-related modifier 1. The experiment is described as follows: inhibitors of SUMO1 partner interactions, dose response, biochemical, FRET (AID 624383). Type of experiment: functional. The conditions noted are these: read-out: IC50_Mean.
Experiment [6] has as its target T2, Low molecular weight phosphotyrosine protein phosphatase. The class given is functional. The conditions noted are these: read-out: IC50_Mean. This is another data set of the same source.
Experiment [7] concerns the target T5, Zinc finger protein mex-5 (Caenorhabditis elegans, UniProt Q9XUB2).
T5 sequence (Q9XUB2 whole entry): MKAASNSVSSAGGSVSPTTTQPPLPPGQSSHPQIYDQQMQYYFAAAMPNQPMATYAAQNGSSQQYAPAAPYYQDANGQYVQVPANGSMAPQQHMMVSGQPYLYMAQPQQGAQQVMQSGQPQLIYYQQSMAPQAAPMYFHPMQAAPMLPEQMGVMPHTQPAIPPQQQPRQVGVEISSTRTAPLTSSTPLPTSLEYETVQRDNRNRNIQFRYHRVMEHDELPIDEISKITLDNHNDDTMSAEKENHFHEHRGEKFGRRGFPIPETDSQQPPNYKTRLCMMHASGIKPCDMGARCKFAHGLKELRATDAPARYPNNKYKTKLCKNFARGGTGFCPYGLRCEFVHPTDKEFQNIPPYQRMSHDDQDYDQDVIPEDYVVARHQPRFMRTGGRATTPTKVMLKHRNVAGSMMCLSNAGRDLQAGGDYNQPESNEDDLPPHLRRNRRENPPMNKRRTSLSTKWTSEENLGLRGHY
The experiment is described as follows: MEX-5/TCR-2 RNA interaction inhibitors, dose response, biochemical, C. elegans, fluorescence polarization (AID 1960).

As for `C=CC1=C(C(=O)O)N2C(=O)[C@@H](NC(=O)/C(=N\O)c3csc(N)n3)[C@H]2SC1` (stereo in doubt), the IC50 in experiment [1] was 4.48 µM (active); in experiment [2], 21.5 µM (inactive); in experiment [4], > 66.6 µM (inactive); in experiment [5], 6.25 µM (active); in experiment [6], 19.6 µM (active). Further, the EC50 in experiment [3] was 49.8 µM (active); in experiment [7], 33.3 µM (active).

For the origin of these results see ChEMBL document CHEMBL1201862, “PubChem BioAssay data set” (2004).
